From ChEMBL document CHEMBL2073909 (J Pharmacol Exp Ther, 1999)

Experiments:
[1] = biological target: T1, Hepatic sodium/bile acid cotransporter (Homo sapiens, UniProt Q14973); assay: TP_TRANSPORTER: inhibition of Taurocholate uptake (Taurocholate: 5 uM, Chlorpropamide: 100 uM) in NTCP-expressing HeLa cells; type: functional, cell-based
T1 sequence (Q14973 whole entry): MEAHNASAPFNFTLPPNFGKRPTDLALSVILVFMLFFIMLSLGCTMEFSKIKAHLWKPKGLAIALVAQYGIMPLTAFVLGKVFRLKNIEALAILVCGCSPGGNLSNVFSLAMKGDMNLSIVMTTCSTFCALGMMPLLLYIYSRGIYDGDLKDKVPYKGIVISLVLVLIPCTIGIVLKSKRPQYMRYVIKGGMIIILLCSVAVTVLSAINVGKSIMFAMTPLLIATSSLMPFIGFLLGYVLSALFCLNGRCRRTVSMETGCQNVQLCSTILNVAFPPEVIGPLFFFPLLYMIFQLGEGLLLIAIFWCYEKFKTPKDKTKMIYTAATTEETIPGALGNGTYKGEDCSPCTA

[2] = biological target: T1, Hepatic sodium/bile acid cotransporter; assay: TP_TRANSPORTER: inhibition of Taurocholate uptake (Taurocholate: 5 uM, Deoxycholate: 100 uM) in NTCP-expressing HeLa cells; type: functional, cell-based
[3] = biological target: T1, Hepatic sodium/bile acid cotransporter; type: functional, cell-based, HeLa
[4] = biological target: T1, Hepatic sodium/bile acid cotransporter; assay: TP_TRANSPORTER: inhibition of Taurocholate uptake (Taurocholate: 5 uM, Progesterone: 100 uM) in NTCP-expressing HeLa cells; type: functional, cell-based

Structure (SMILES)	IC50 [3] [µM]	also measured
CCCNC(=O)NS(=O)(=O)c1ccc(Cl)cc1 [CHLORPROPAMIDE]		Inhibition [1]: inhibitor [(at a rough estimate) 30 % inhibition]
C[C@H](CCC(=O)O)[C@H]1CC[C@H]2[C@@H]3CC[C@@H]4C[C@H](O)CC[C@]4(C)[C@H]3C[C@H](O)[C@]12C [DEOXYCHOLIC ACID]		Inhibition [2]: inhibitor [(at a rough estimate) 70 % inhibition]
CC(=O)N1CCN(c2ccc(OCC3COC(Cn4ccnc4)(c4ccc(Cl)cc4Cl)O3)cc2)CC1 (stereo not drawn) [KETOCONAZOLE]	264	
CC(C)NC[C@H](O)COc1cccc2ccccc12 [LEVOPROPRANOLOL]	6.1	
CC(=O)[C@H]1CC[C@H]2[C@@H]3CCC4=CC(=O)CC[C@]4(C)[C@H]3CC[C@]12C [PROGESTERONE]		Inhibition [4]: inhibitor [(at a rough estimate) 80 % inhibition]
CC(C)NCC(O)COc1cccc2ccccc12 (stereo not drawn) [PROPRANOLOL]	5.5	
O=C1OC(c2ccc(O)c(S(=O)(=O)O)c2)(c2ccc(O)c(S(=O)(=O)O)c2)c2c(Br)c(Br)c(Br)c(Br)c21 [SULFOBROMOPHTHALEIN SODIUM]	7.3	
C[C@H](CCC(=O)O)[C@H]1CC[C@H]2[C@@H]3[C@@H](O)C[C@@H]4C[C@H](O)CC[C@]4(C)[C@H]3CC[C@]12C [URSODIOL]	3.6	
